Source: patent US9451763B2, “Disinfectant formulation” (Laboratoire M2, priority 2008, dated 2016)

Test system: Staphylococcus aureus (ATCC 6538)
Assay: Minimum concentration for total antimicrobial activity, AOAC method 955.15 (Phenol Coefficient Method) with minor modifications
Format: cell-based

Row | SMILES | antimicrobial activity (in words) | Minimal Concentration (minimum concentration for total antimicrobial activity, incorporated into composition F, contact time 10 minutes, turbidity after 72 hours at 37° C.) [v/v %]
1 | Cc1ccc(C(C)C)cc1O [Carvacrol] | excellent antimicrobial activity | 0.07
2 | Cc1ccc(C(C)C)c(O)c1 [Thymol] | excellent antimicrobial activity | –
